Reference: patent US11485751B2, “Apramycin derivatives” (WAYNE STATE UNIVERSITY, priority 2017, dated 2022)
Values after ≈ are worked out from the molar mass of the structure shown.

Assays:
[1] = system: clinical isolates carrying AAC(3)-IV; assay: MIC broth microdilution, AAC(3)-IV; assay type: cell-based; settings: clinical isolates, IMM Univ. Zurich; AAC(3)-IV; read-out: MIC AAC(3)-IV
In short: (§1)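 Clinical isolates supplied by the Zurich Institute of Medical Microbiology were tested for MIC (μg/ml) using CLSI M07-A10 broth microdilution.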

[2] = system: clinical isolates carrying APH(3′)-I; assay: MIC broth microdilution, APH(3′)-I; assay type: cell-based; settings: IMM Univ. Zurich
Description: (§2) Minimal inhibitory concentrations (MIC) have been determined by broth microdilution assays (CLSI. Methods for Dilution Antimicrobial Susceptibility Tests for Bacteria That Grow Aerobically; Approved Standard—Tenth Edition. CLSI document M07-A10. Wayne, Pa.: Clinical and Laboratory Standards Institute; 2015.).
(§3) Minimal inhibitory concentrations (MICs, […]) against clinical isolates from Institute of Medical Microbiology, Univ. Zurich, and the IC50 values for bacterial, human mitochondrial and human cytosolic ribosomes are indicated.

[3] = system: clinical isolates carrying APH(3′)-II; assay: MIC broth microdilution, APH(3′)-II; assay type: cell-based; settings: clinical isolates, IMM Univ. Zurich; APH(3′)-II; read-out: MIC APH(3′)-II
Description: as §2, §3

[4] = system: clinical isolates carrying APH(3′)-III; assay: MIC broth microdilution, APH(3′)-III; assay type: cell-based; settings: IMM Univ. Zurich
Description: as §2, §3

[5] = system: clinical isolates carrying APH(3′)-VI; assay: MIC broth microdilution, APH(3′)-VI; assay type: cell-based; settings: IMM Univ. Zurich
Description: as §2, §3

bacterial ribosomes = assay: in-vitro translation assay, bacterial ribosomes; assay type: biochemical
In short: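 Cell-free translation; IC50 read-out. Mito = human chimeric ribosomes; cytosolic = rabbit reticulocyte ribosomes; bacterial ribosomes run in the same assay format.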

[6] = system: human mitochondrial ribosomes; assay: in-vitro translation assay, human mitochondrial (human chimeric) ribosomes; assay type: biochemical
In short: (§4)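 Reported values are IC50s for inhibition of in-vitro translation. For the mitochondrial target, human chimeric ribosomes were used. For the cytosolic target, rabbit reticulocyte ribosomes were used.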

[7] = system: human cytosolic ribosomes; assay: in-vitro translation assay, human cytosolic ribosomes; assay type: biochemical
In short: as §4

[8] = system: AG212, Escherichia coli ATCC25922; assay: MIC reference strain AG212; assay type: cell-based; settings: Escherichia coli; reference strain ATCC25922; read-out: MIC AG212 E. coli
In short: (§5)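 The method determines minimal inhibitory concentrations using the standard CLSI microdilution procedure in liquid medium.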

[9] = system: AG215, Klebsiella pneumonia; assay: MIC reference strain AG215; assay type: cell-based; settings: Klebsiella pneumoniae, reference strain; read-out: MIC AG215 K. pneumonia
In short: as §5

[10] = system: AG290, Enterobacter cloacae; assay: MIC reference strain AG290; assay type: cell-based; settings: Enterobacter cloacae; reference strain; read-out: MIC AG290 E. cloacae
In short: as §5

[11] = system: AG220, Pseudomonas aeruginosa ATCC27853; assay: MIC reference strain AG220; assay type: cell-based; settings: Pseudomonas aeruginosa, ATCC27853, reference strain ATCC27853; read-out: MIC AG220 P. aeruginosa
In short: as §5

[12] = system: AG225, Acinetobacter baumannii pittii; assay: MIC reference strain AG225; assay type: cell-based; settings: Acinetobacter baumannii, reference strain; read-out: MIC AG225 A. baumannii
In short: as §5

[13] = system: SZ380, Mycobacterium smegmatis; assay: MIC reference strain SZ380; assay type: cell-based; settings: Mycolicibacterium smegmatis, reference strain; read-out: MIC SZ380 M. smegmatis
In short: as §5

ATCC19977 M. abcessus = assay: MIC reference strain ATCC19977; assay type: cell-based; settings: read-out: MIC ATCC19977 M. abcessus
In short: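 Compounds are serially diluted in liquid medium in microplates, bacteria are added, and the lowest concentration preventing growth is recorded as the MIC (CLSI procedure).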

AG001 E. coli WT = assay: Antibacterial activity, clinical isolate AG001; assay type: cell-based; design: unit not given here
In short: (§6)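 Susceptibility was tested per CLSI aerobic dilution protocol using microbroth format, with the MIC taken as the end point.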

AG055 E. coli WT = assay: Antibacterial activity, clinical isolate AG055; assay type: cell-based; design: unit not given here
In short: as §6

AG003 E. coli AAC(3)-II = assay: Antibacterial activity, clinical isolate AG003; assay type: cell-based
In short: as §6

AG173 E. coli AAC(3)-IV = assay: Antibacterial activity, clinical isolate AG173; assay type: cell-based
In short: as §6

AG163 E. coli APH(3′)-I = assay: Antibacterial activity, clinical isolate AG163; assay type: cell-based
Description: as §2
Table 4 and 5 show the antibacterial activity of the compounds of the invention against bacterial reference strains (table 4) and against representative clinical isolates (table 5).

AG038 MRSA = assay: Antibacterial activity, clinical isolate AG038; assay type: cell-based; design: unit not given here
In short: as §6

[14] = system: AG039 MRSA AAC(6′)-I ANT(4′)-I; assay: Antibacterial activity, clinical isolate AG039; assay type: cell-based
In short: as §6

[15] = system: AG042 MRSA AAC(6′)-I ANT(4′)-I APH(2′); assay: Antibacterial activity, clinical isolate AG042; assay type: cell-based; design: unit not given here
In short: as §6

AG031 P. aer. APH(3′)-II = assay: Antibacterial activity, clinical isolate AG031; assay type: cell-based; design: unit not given here
In short: as §6

AG032 P. aer. APH(3′)-II = assay: Antibacterial activity, clinical isolate AG032; assay type: cell-based; design: unit not given here
In short: as §6

[16] = system: AG033 P. aer. APH(3′)-II AAC(6′)-I; assay: Antibacterial activity, clinical isolate AG033; assay type: cell-based; design: unit not given here
In short: as §6

[17] = system: Engineered E. coli pH430 WT; assay: Activity, engineered E. coli pH430 WT; assay type: cell-based; settings: wild type
In short: (§7)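 Strains are tested by broth microdilution under the CLSI M07-A10 procedure. The lowest inhibitory concentration is recorded as the MIC.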

[18] = system: Engineered E. coli AG103 armA; assay: Activity against G1405-methylated 16S-rRNA, E. coli AG103 armA; assay type: cell-based
Description: as §2

[19] = system: Engineered E. coli pH424 armA; assay: Activity against G1405-methylated 16S-rRNA, E. coli pH424 armA; assay type: cell-based
In short: as §7

[20] = system: Engineered E. coli pH425 rmtB; assay: Activity against G1405-methylated 16S-rRNA, E. coli pH425 rmtB; assay type: cell-based
In short: as §7

[21] = system: Engineered E. coli pH426 rmtC; assay: Activity against G1405-methylated 16S-rRNA, E. coli pH426 rmtC; assay type: cell-based
In short: as §7

[22] = system: Engineered E. coli pH427 rmtF; assay: Activity against G1405-methylated 16S-rRNA, E. coli pH427 rmtF; assay type: cell-based
In short: as §7

WT clinical isolates = assay: MIC broth microdilution, WT; assay type: cell-based; settings: read-out: MIC WT, clinical isolates, IMM Univ. Zurich; wild type
In short: as §1

[23] = system: E. coli AG153 AAC(3)-II APH(3′)-II rmtB; assay: Activity against G1405-methylated 16S-rRNA, clinical isolate AG153; assay type: cell-based
In short: as §7

[24] = system: K. pneum. AG269 AAC(3)-II AAC(6′)-I rmtB; assay: Activity against G1405-methylated 16S-rRNA, clinical isolate AG269; assay type: cell-based
In short: as §7

[25] = system: Enterob. AG302 AAC(3)-II AAC(6′)-I rmtC; assay: Activity against G1405-methylated 16S-rRNA, clinical isolate AG302; assay type: cell-based
In short: as §7

[26] = system: A baum. AG227 APH(3′)-I armA; assay: Activity against G1405-methylated 16S-rRNA, clinical isolate AG227; assay type: cell-based
In short: as §7

SMILES | MIC [1] [µg/mL] | MIC [2] [µg/mL] | MIC [3] [µg/mL] | MIC [4] [µg/mL] | MIC [5] [µg/mL] | IC50 (bacterial ribosomes) [nM] | IC50 [6] [µM] | IC50 [7] [µM] | MIC [8] [µg/mL] | MIC [9] [µg/mL] | MIC [10] [µg/mL] | MIC [11] [µg/mL] | MIC [12] [µg/mL] | MIC [13] [µg/mL] | MIC (ATCC19977 M. abcessus) [µg/mL] | Antibacterial activity AG001 E. coli WT (AG001 E. coli WT) | Antibacterial activity AG038 MRSA (AG038 MRSA) | Antibacterial activity AG031 P. aer. APH(3′)-II (AG031 P. aer. APH(3′)-II) | Activity E. coli pH430 WT [17] | Activity E. coli pH424 armA [19] | other results
CNC1C(OC2OC(CO)C(N)C(O)C2O)OC2CC(N)C(OC3C(N)CC(N)C(O)C3OC3OC(CO)C(OCCO)C3O)OC2C1O [DC178, 5-O-β-[3′″-O-(2-Hydroxyethyl)-D-ribofuranosyl] apramycin] | > 32 | > 64 | 8 (≈ 11.2 µM) | 2 (≈ 2.79 µM) | 16 (≈ 22.4 µM) | 220 | 647 | > 500 | 8 | 4 | 8 | > 64 | 16 | 2 | 32 (≈ 44.7 µM) | 32 | 16-32 | >32 | 8 | 2 | Antibacterial activity AG055 E. coli WT (AG055 E. coli WT): 16; Antibacterial activity AG003 E. coli AAC(3)-II (AG003 E. coli AAC(3)-II): 16; Antibacterial activity AG173 E. coli AAC(3)-IV (AG173 E. coli AAC(3)-IV): 32-64; Antibacterial activity AG163 E. coli APH(3′)-I (AG163 E. coli APH(3′)-I): 8; Antibacterial activity AG039 MRSA AAC(6′)-I ANT(4′)-I [14]: 32; Antibacterial activity AG042 MRSA AAC(6′)-I ANT(4′)-I APH(2′) [15]: 32; Antibacterial activity AG032 P. aer. APH(3′)-II (AG032 P. aer. APH(3′)-II): >32; Antibacterial activity AG033 P. aer. APH(3′)-II AAC(6′)-I [16]: >32; Activity E. coli AG103 armA [18]: 2; Activity E. coli pH425 rmtB [20]: 8; Activity E. coli pH426 rmtC [21]: 8; Activity E. coli pH427 rmtF [22]: 8
CNC1C(O)C2O[C@H](O[C@@H]3C(N)C[C@@H](N)C(O)[C@H]3OC3O[C@H](CN)[C@@H](O)[C@H]3O)C(N)C[C@@H]2O[C@@H]1O[C@H]1OC(CO)[C@@H](N)[C@H](O)C1O (stereo partly drawn) [DC201] | 16 (≈ 23.9 µM) | 2 to 4 (≈ 2.98 to 5.96 µM) | 4 (≈ 5.96 µM) | 1 (≈ 1.49 µM) | 4 (≈ 5.96 µM) | 120 | 113 | 81 | 4 | 2 | 2 | 4 to 8 | 4 to 8 | 0.25 | 1 to 2 (≈ 1.49 to 2.98 µM) | 4 | 2-4 | 16 | 8 | 2 | MIC (WT clinical isolates): 8 µg/mL (≈ 11.9 µM); Activity E. coli AG153 AAC(3)-II APH(3′)-II rmtB [23]: 8; Activity K. pneum. AG269 AAC(3)-II AAC(6′)-I rmtB [24]: 4; Activity Enterob. AG302 AAC(3)-II AAC(6′)-I rmtC [25]: 4; Activity A baum. AG227 APH(3′)-I armA [26]: 8-16
